Reference: the NIST ThermoML archive (doi:10.1007/s10765-013-1469-0)
± gives the expanded uncertainty stated by the source.

Test: xn = mol fraction of the nth substance listed
Conditions: 101 kPa, Liquid; for viscosity: Concentric cylinders viscometry; for mass density: Vibrating tube method

SMILES: COCCOCCOCCOCCOC [2,5,8,11,14-pentaoxapentadecane] + CCCCO
- viscosity (313.15 K, x2 = 0): 2.426 ± 0.023 mPa·s
- viscosity (313.15 K, x2 = 0.1013): 2.278 ± 0.022 mPa·s
- viscosity (313.15 K, x2 = 0.2236): 2.134 ± 0.02 mPa·s
- viscosity (313.15 K, x2 = 0.3036): 2.034 ± 0.019 mPa·s
- viscosity (313.15 K, x2 = 0.4131): 1.905 ± 0.018 mPa·s
- viscosity (313.15 K, x2 = 0.5065): 1.812 ± 0.017 mPa·s
- viscosity (313.15 K, x2 = 0.5996): 1.712 ± 0.017 mPa·s
- viscosity (313.15 K, x2 = 0.7007): 1.631 ± 0.016 mPa·s
- viscosity (313.15 K, x2 = 0.7991): 1.592 ± 0.016 mPa·s
- viscosity (313.15 K, x2 = 0.8996): 1.628 ± 0.016 mPa·s
- mass density (313.15 K, x2 = 0): 992.481 ± 0.099 kg/m3
- mass density (313.15 K, x2 = 0.1013): 983.495 ± 0.1 kg/m3
- mass density (313.15 K, x2 = 0.2236): 971.126 ± 0.1 kg/m3
- mass density (313.15 K, x2 = 0.3036): 961.914 ± 0.11 kg/m3
- mass density (313.15 K, x2 = 0.4131): 947.487 ± 0.11 kg/m3
- mass density (313.15 K, x2 = 0.5065): 933.108 ± 0.12 kg/m3
- mass density (313.15 K, x2 = 0.5996): 916.363 ± 0.12 kg/m3
- mass density (313.15 K, x2 = 0.7007): 894.665 ± 0.13 kg/m3
- mass density (313.15 K, x2 = 0.7991): 868.935 ± 0.13 kg/m3
- mass density (313.15 K, x2 = 0.8996): 836.188 ± 0.14 kg/m3
- viscosity (318.15 K, x2 = 0): 2.199 ± 0.021 mPa·s
- viscosity (318.15 K, x2 = 0.1013): 2.074 ± 0.02 mPa·s
- viscosity (318.15 K, x2 = 0.2236): 1.942 ± 0.019 mPa·s
- viscosity (318.15 K, x2 = 0.3036): 1.853 ± 0.018 mPa·s
- viscosity (318.15 K, x2 = 0.4131): 1.738 ± 0.017 mPa·s
- viscosity (318.15 K, x2 = 0.5065): 1.653 ± 0.016 mPa·s
- viscosity (318.15 K, x2 = 0.5996): 1.562 ± 0.015 mPa·s
- viscosity (318.15 K, x2 = 0.7007): 1.488 ± 0.015 mPa·s
- viscosity (318.15 K, x2 = 0.7991): 1.45 ± 0.014 mPa·s
- viscosity (318.15 K, x2 = 0.8996): 1.47 ± 0.015 mPa·s
- mass density (318.15 K, x2 = 0): 987.859 ± 0.1 kg/m3
- mass density (318.15 K, x2 = 0.1013): 978.879 ± 0.1 kg/m3
- mass density (318.15 K, x2 = 0.2236): 966.542 ± 0.11 kg/m3
- mass density (318.15 K, x2 = 0.3036): 957.357 ± 0.11 kg/m3
- mass density (318.15 K, x2 = 0.4131): 942.969 ± 0.11 kg/m3
- mass density (318.15 K, x2 = 0.5065): 928.631 ± 0.12 kg/m3
- mass density (318.15 K, x2 = 0.5996): 911.939 ± 0.12 kg/m3
- mass density (318.15 K, x2 = 0.7007): 890.317 ± 0.13 kg/m3
- mass density (318.15 K, x2 = 0.7991): 864.686 ± 0.14 kg/m3
- mass density (318.15 K, x2 = 0.8996): 832.069 ± 0.15 kg/m3
- viscosity (323.15 K, x2 = 0): 2.006 ± 0.019 mPa·s
- viscosity (323.15 K, x2 = 0.1013): 1.892 ± 0.018 mPa·s
- viscosity (323.15 K, x2 = 0.2236): 1.777 ± 0.017 mPa·s
- viscosity (323.15 K, x2 = 0.3036): 1.698 ± 0.017 mPa·s
- viscosity (323.15 K, x2 = 0.4131): 1.592 ± 0.016 mPa·s
- viscosity (323.15 K, x2 = 0.5065): 1.515 ± 0.015 mPa·s
- viscosity (323.15 K, x2 = 0.5996): 1.432 ± 0.014 mPa·s
- viscosity (323.15 K, x2 = 0.7007): 1.362 ± 0.014 mPa·s
- viscosity (323.15 K, x2 = 0.7991): 1.325 ± 0.013 mPa·s
- viscosity (323.15 K, x2 = 0.8996): 1.334 ± 0.013 mPa·s
- mass density (323.15 K, x2 = 0): 983.234 ± 0.1 kg/m3
- mass density (323.15 K, x2 = 0.1013): 974.275 ± 0.1 kg/m3
- mass density (323.15 K, x2 = 0.2236): 961.962 ± 0.11 kg/m3
- mass density (323.15 K, x2 = 0.3036): 952.794 ± 0.11 kg/m3
- mass density (323.15 K, x2 = 0.4131): 938.437 ± 0.11 kg/m3
- mass density (323.15 K, x2 = 0.5065): 924.136 ± 0.12 kg/m3
- mass density (323.15 K, x2 = 0.5996): 907.495 ± 0.12 kg/m3
- mass density (323.15 K, x2 = 0.7007): 885.946 ± 0.13 kg/m3
- mass density (323.15 K, x2 = 0.7991): 860.406 ± 0.14 kg/m3
- mass density (323.15 K, x2 = 0.8996): 827.911 ± 0.15 kg/m3
- viscosity (328.15 K, x2 = 0): 1.838 ± 0.018 mPa·s
- viscosity (328.15 K, x2 = 0.1013): 1.736 ± 0.017 mPa·s
- viscosity (328.15 K, x2 = 0.2236): 1.633 ± 0.016 mPa·s
- viscosity (328.15 K, x2 = 0.3036): 1.558 ± 0.015 mPa·s
- viscosity (328.15 K, x2 = 0.4131): 1.465 ± 0.015 mPa·s
- viscosity (328.15 K, x2 = 0.5065): 1.394 ± 0.014 mPa·s
- viscosity (328.15 K, x2 = 0.5996): 1.318 ± 0.013 mPa·s
- viscosity (328.15 K, x2 = 0.7007): 1.254 ± 0.013 mPa·s
- viscosity (328.15 K, x2 = 0.7991): 1.213 ± 0.012 mPa·s
- viscosity (328.15 K, x2 = 0.8996): 1.209 ± 0.012 mPa·s
- mass density (328.15 K, x2 = 0): 978.613 ± 0.1 kg/m3
- mass density (328.15 K, x2 = 0.1013): 969.653 ± 0.1 kg/m3
- mass density (328.15 K, x2 = 0.2236): 957.366 ± 0.11 kg/m3
- mass density (328.15 K, x2 = 0.3036): 948.222 ± 0.11 kg/m3
- mass density (328.15 K, x2 = 0.4131): 933.901 ± 0.12 kg/m3
- mass density (328.15 K, x2 = 0.5065): 919.635 ± 0.12 kg/m3
- mass density (328.15 K, x2 = 0.5996): 903.036 ± 0.12 kg/m3
- mass density (328.15 K, x2 = 0.7007): 881.55 ± 0.13 kg/m3
- mass density (328.15 K, x2 = 0.7991): 856.094 ± 0.14 kg/m3
- mass density (328.15 K, x2 = 0.8996): 823.712 ± 0.15 kg/m3
- viscosity (333.15 K, x2 = 0): 1.691 ± 0.016 mPa·s
- viscosity (333.15 K, x2 = 0.1013): 1.612 ± 0.016 mPa·s
- viscosity (333.15 K, x2 = 0.2236): 1.516 ± 0.015 mPa·s
- viscosity (333.15 K, x2 = 0.3036): 1.448 ± 0.014 mPa·s
- viscosity (333.15 K, x2 = 0.4131): 1.359 ± 0.014 mPa·s
- viscosity (333.15 K, x2 = 0.5065): 1.289 ± 0.013 mPa·s
- viscosity (333.15 K, x2 = 0.5996): 1.223 ± 0.012 mPa·s
- viscosity (333.15 K, x2 = 0.7007): 1.161 ± 0.012 mPa·s
- viscosity (333.15 K, x2 = 0.7991): 1.119 ± 0.011 mPa·s
- viscosity (333.15 K, x2 = 0.8996): 1.104 ± 0.011 mPa·s
- mass density (333.15 K, x2 = 0): 973.989 ± 0.1 kg/m3
- mass density (333.15 K, x2 = 0.1013): 965.036 ± 0.11 kg/m3
- mass density (333.15 K, x2 = 0.2236): 952.77 ± 0.11 kg/m3
- mass density (333.15 K, x2 = 0.3036): 943.642 ± 0.12 kg/m3
- mass density (333.15 K, x2 = 0.4131): 929.347 ± 0.12 kg/m3
- mass density (333.15 K, x2 = 0.5065): 915.11 ± 0.12 kg/m3
- mass density (333.15 K, x2 = 0.5996): 898.551 ± 0.13 kg/m3
- mass density (333.15 K, x2 = 0.7007): 877.126 ± 0.14 kg/m3
- mass density (333.15 K, x2 = 0.7991): 851.747 ± 0.15 kg/m3
- mass density (333.15 K, x2 = 0.8996): 819.469 ± 0.17 kg/m3
